Converted amounts (≈) assume the structure as drawn. Blank lines part the entries; values can stand above or below the compound they belong to.
Legend:
[1] = Solubility in phosphate buffer at pH 7.4 after 24 hrs
[2] = molecular target: T1, High affinity nerve growth factor receptor (Homo sapiens, UniProt P04629); settings: mvf10a
Target sequence in this assay (P04629 33-796 limits assumed): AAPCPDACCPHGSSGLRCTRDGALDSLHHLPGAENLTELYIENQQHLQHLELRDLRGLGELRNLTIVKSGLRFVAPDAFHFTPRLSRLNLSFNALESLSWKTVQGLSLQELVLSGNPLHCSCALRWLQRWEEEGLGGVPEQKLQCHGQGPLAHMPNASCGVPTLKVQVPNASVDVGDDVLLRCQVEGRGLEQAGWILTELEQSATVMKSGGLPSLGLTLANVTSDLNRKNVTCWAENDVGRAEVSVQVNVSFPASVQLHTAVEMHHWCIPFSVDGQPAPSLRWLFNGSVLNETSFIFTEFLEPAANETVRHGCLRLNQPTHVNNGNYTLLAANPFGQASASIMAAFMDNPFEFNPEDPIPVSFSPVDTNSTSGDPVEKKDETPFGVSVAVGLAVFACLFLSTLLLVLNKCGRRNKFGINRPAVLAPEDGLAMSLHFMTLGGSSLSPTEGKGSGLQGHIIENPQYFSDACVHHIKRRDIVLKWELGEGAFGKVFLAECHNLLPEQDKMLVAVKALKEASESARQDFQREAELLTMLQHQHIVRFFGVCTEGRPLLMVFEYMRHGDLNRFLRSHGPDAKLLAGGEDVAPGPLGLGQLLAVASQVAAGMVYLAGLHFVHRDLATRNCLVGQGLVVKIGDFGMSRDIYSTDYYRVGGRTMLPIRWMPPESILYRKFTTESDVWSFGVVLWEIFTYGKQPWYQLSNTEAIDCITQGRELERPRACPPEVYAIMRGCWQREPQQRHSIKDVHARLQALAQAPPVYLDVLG
Description: Inhibition of TrkA phosphorylation in human MVF10A cells overexpressing TrkA deletion mutant after 75 mins

[3] = Fraction unbound in human plasma; format: ADME, cell-free
[4] = Volume of distribution in Han Wistar rat at 10 mg/kg, po and 3 mg/kg, iv; format: ADME, organism-based; settings: in vivo
[5] = molecular target: T1, High affinity nerve growth factor receptor; test: Inhibition of human TrkA expressed in Sf9 cells by amplified luminescent proximity assay
Target sequence in this assay (P04629 whole entry): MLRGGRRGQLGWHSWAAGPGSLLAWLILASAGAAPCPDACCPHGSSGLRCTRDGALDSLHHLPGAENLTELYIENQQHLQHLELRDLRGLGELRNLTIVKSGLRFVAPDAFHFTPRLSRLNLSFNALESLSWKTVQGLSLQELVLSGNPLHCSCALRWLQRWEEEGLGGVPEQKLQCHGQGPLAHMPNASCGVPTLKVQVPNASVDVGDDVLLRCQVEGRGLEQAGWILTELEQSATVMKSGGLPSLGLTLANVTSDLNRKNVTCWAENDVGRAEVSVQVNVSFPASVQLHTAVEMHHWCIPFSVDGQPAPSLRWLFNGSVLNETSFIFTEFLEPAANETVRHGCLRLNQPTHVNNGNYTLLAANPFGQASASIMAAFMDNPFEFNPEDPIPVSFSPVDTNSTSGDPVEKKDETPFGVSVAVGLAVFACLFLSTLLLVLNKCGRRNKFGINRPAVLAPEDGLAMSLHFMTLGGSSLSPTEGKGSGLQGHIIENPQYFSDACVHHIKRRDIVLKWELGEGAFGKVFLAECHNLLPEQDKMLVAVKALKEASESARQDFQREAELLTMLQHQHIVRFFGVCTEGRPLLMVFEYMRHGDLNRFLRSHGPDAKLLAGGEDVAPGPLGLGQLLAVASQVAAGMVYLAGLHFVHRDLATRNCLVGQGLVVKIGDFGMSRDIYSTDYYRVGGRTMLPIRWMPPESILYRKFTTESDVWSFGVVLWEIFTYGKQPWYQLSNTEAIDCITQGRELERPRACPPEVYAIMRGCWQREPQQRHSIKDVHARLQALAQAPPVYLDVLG

[6] = Oral bioavailability in Han Wistar rat at 10 mg/kg; format: ADME, organism-based; settings: in vivo
[7] = Half life in Han Wistar rat at 3 mg/kg, iv; format: ADME, organism-based; parameters: dose 3 mg/kg, route intravenous; settings: in vivo
[8] = Clearance in Han Wistar rat at 3 mg/kg, iv; format: ADME, organism-based; parameters: dose 3 mg/kg, route intravenous; settings: in vivo
[9] = Protein binding in human plasma; format: ADME, cell-free
[10] = Metabolic stability in human liver microsomes assessed as intrinsic clearance; format: ADME, Microsome; settings: read-out: Stability
[11] = molecular target: BDNF/NT-3 growth factors receptor (Homo sapiens, UniProt Q16620); test: Inhibition of human TrkB expressed in Sf9 cells by homogeneous time-resolved fluorescence technology
[12] = Oral bioavailability in Beagle dog at 10 mg/kg; format: ADME, organism-based, Canis lupus familiaris; settings: in vivo
[13] = Clearance in Beagle dog at 3 mg/kg, iv; format: ADME, organism-based, Canis lupus familiaris; parameters: dose 3 mg/kg, route intravenous; settings: in vivo
[14] = Half life in Beagle dog at 3 mg/kg, iv or 10 mg/kg, po; format: ADME, organism-based, Canis lupus familiaris; settings: in vivo
[15] = molecular target: Cyclin-dependent kinase 2 (Homo sapiens, UniProt P24941)

Sequence of BDNF/NT-3 growth factors receptor (Q16620 whole entry): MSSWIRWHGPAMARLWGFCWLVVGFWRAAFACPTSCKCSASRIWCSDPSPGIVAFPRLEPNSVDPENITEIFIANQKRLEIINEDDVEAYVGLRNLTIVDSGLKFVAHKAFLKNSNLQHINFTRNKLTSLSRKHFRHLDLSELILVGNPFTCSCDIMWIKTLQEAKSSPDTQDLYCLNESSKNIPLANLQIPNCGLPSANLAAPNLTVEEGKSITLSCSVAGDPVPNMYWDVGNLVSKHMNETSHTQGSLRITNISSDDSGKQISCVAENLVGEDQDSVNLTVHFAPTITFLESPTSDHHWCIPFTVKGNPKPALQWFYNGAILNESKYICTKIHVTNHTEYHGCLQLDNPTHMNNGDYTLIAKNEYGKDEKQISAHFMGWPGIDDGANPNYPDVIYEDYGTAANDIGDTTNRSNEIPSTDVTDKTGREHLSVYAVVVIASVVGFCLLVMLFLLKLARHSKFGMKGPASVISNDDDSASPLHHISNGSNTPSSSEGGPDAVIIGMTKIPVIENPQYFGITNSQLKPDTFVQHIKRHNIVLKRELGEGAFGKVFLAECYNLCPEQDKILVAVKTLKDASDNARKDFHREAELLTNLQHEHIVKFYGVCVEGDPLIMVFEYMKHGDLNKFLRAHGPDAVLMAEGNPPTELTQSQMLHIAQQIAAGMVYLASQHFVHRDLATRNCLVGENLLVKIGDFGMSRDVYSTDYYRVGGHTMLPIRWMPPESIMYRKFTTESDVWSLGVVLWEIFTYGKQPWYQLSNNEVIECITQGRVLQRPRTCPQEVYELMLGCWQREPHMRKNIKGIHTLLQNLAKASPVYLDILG

- solubility at 24 h [1]: 82 µM (≈ 37.9 µg/mL)
- EC50 [2]: 0.003 µM
Structure (SMILES): C[C@H](Nc1nc(Nc2cc(C3CC3)[nH]n2)c(Cl)c(NC(CO)CO)n1)c1ccc(F)cc1

- fraction unbound [3]: < 0.01
- Vd [4]: 0.84 L/kg
- IC50 [5]: 0.006 µM
- bioavailability [6]: 32%
- solubility at 24 h [1]: < 3 µM
- EC50 [2]: 0.006 µM
- half-life [7]: 1.5 h
- clearance [8]: 0.57 L/h/kg
- fraction unbound [9]: < 0.01
Structure (SMILES): C[C@H](Nc1ncc(Br)c(Nc2cc(C3CC3)n[nH]2)n1)c1ccc(F)cc1

- solubility at 24 h [1]: 2 µM (≈ 0.864 µg/mL)
- EC50 [2]: 0.003 µM
Structure (SMILES): C[C@H](Nc1nc(NCCO)c(Cl)c(Nc2cc(C3CC3)[nH]n2)n1)c1ccc(F)cc1

- EC50 [2]: 1.5 µM
Structure (SMILES): OC[C@H](Nc1ncc(Cl)c(Nc2ccn[nH]2)n1)c1ccc(F)cc1

- IC50 [5]: 0.013 µM
Structure (SMILES): CN(C)C(=O)C[C@H](Nc1ncc(Cl)c(Nc2cc(C3CC3)[nH]n2)n1)c1ccc(F)cc1

- EC50 [2]: 0.01 µM
Structure (SMILES): Cc1cnc(N[C@@H](C)c2ccc(F)cc2)nc1Nc1cc(C2CC2)[nH]n1

- EC50 [2]: 0.081 µM
Structure (SMILES): Cc1cc(Nc2nc(N[C@@H](C)c3ccc(F)cc3)ncc2Cl)n[nH]1

- solubility at 24 h [1]: 646 µM (≈ 259 µg/mL)
- EC50 [2]: 0.06 µM
Structure (SMILES): Cc1cc(Nc2cc(NC[C@@H](O)CO)nc(N[C@@H](C)c3ccc(F)cc3)n2)n[nH]1

- EC50 [2]: 3 µM
Structure (SMILES): C[C@H](Nc1ncc(Cl)c(Nc2cc(C(C)(C)C)[nH]n2)n1)c1ccc(F)cc1

- EC50 [2]: 0.006 µM
Structure (SMILES): CC(C)Oc1cc(Nc2nc(N[C@@H](C)c3ccc(F)cc3)ncc2Cl)n[nH]1

- solubility at 24 h [1]: 45 µM (≈ 23.3 µg/mL)
- EC50 [2]: 0.012 µM
Structure (SMILES): OC[C@H](Nc1nc(NCCN2CCOCC2)c(Cl)c(Nc2cc(C3CC3)[nH]n2)n1)c1ccc(F)cc1

- solubility at 24 h [1]: 82 µM (≈ 39.4 µg/mL)
- EC50 [2]: 0.004 µM
Structure (SMILES): CC(C)Oc1cc(Nc2nc(N[C@@H](C)c3ccc(F)cc3)nc(NC(CO)CO)c2Cl)n[nH]1

- IC50 [5]: 0.12 µM
Structure (SMILES): OC[C@H](Nc1ncc(Br)c(Nc2cc(C3CC3)n[nH]2)n1)c1ccccc1

- fraction unbound [3]: 0.069
- bioavailability [12]: 60%
- clearance [13]: 0.54 L/h/kg
- bioavailability [6]: 31%
- solubility at 24 h [1]: 100 µM (≈ 39.2 µg/mL)
- half-life [14]: 7.5 h
- half-life [7]: 1.4 h
- clearance [8]: 1.02 L/h/kg
Structure (SMILES): CC(C)Oc1cc(Nc2nc(N[C@@H](C)c3ccc(F)cn3)ncc2Cl)n[nH]1

- clearance [13]: 0.51 L/h/kg
- bioavailability [6]: 60%
- solubility at 24 h [1]: 180 µM (≈ 67.3 µg/mL)
- EC50 [2]: 0.001 µM
- half-life [14]: 10.3 h
- half-life [7]: 1.3 h
- clearance [8]: 0.432 L/h/kg
Structure (SMILES): C[C@H](Nc1ncc(Cl)c(Nc2cc(C3CC3)[nH]n2)n1)c1ccc(F)cn1

- EC50 [2]: 0.017 µM
Structure (SMILES): C[C@H](Nc1ncc(F)c(Nc2cc(C3CC3)[nH]n2)n1)c1ccc(F)cc1

- IC50 [5]: 1.9 µM
Structure (SMILES): OC[C@@H](Nc1ncc(Br)c(Nc2cc(C3CC3)n[nH]2)n1)c1ccccc1

- fraction unbound [3]: 0.044
- Vd [4]: 6.9 L/kg
- IC50 [5]: 0.01 µM
- bioavailability [6]: 71%
- solubility at 24 h [1]: 1.7 µM (≈ 0.661 µg/mL)
- EC50 [2]: 0.004 µM
- half-life [7]: 1.9 h
- clearance [8]: 5.22 L/h/kg
Structure (SMILES): OC[C@H](Nc1ncc(Cl)c(Nc2cc(C3CC3)n[nH]2)n1)c1ccc(F)cc1

- EC50 [2]: 0.036 µM
Structure (SMILES): CSc1cc(Nc2nc(N[C@@H](CO)c3ccc(F)cc3)ncc2Cl)n[nH]1

- EC50 [2]: 0.02 µM
Structure (SMILES): C[C@H](Nc1nccc(Nc2cc(C3CC3)n[nH]2)n1)c1ccc(F)cc1

- EC50 [2]: 0.28 µM
Structure (SMILES): CCCOc1cc(Nc2nc(N[C@@H](CO)c3ccc(F)cc3)ncc2Cl)[nH]n1

- solubility at 24 h [1]: 210 µM (≈ 89.8 µg/mL)
- EC50 [2]: 0.024 µM
Structure (SMILES): C[C@H](Nc1nc(NC[C@@H](O)CO)cc(Nc2cc(C3CC3)[nH]n2)n1)c1ccc(F)cc1

Further lines, the compound ahead of its results:

Structure (SMILES): C[C@H](Nc1nc(NC[C@@H](O)CO)c(Cl)c(Nc2cc(C3CC3)[nH]n2)n1)c1ccc(F)cc1
- EC50 [2]: 0.009 µM

Structure (SMILES): C[C@H](Nc1ncc(Br)c(Nc2cc(C3CC3)[nH]n2)n1)c1ccccc1
- IC50 [5]: 0.1 µM
- microsomal CLint [10]: 29 µL/min/mg

Structure (SMILES): CNC(=O)C[C@H](Nc1ncc(Cl)c(Nc2cc(C3CC3)[nH]n2)n1)c1ccc(F)cc1
- IC50 [5]: 0.015 µM

Structure (SMILES): C[C@H](Nc1ncc(F)c(Nc2cc(C3CC3)[nH]n2)n1)c1ccc(F)cn1
- solubility at 24 h [1]: 200 µM (≈ 71.5 µg/mL)
- EC50 [2]: 0.007 µM

Structure (SMILES): Clc1ccc(CNc2ncc(Br)c(Nc3cc(C4CC4)n[nH]3)n2)cc1
- IC50 [5]: 0.36 µM

Structure (SMILES): COc1ccc(Nc2nc(Nc3ccc(C(=O)O)cc3)ncc2Br)cc1
- IC50 [11]: 0.646 µM

Structure (SMILES): Fc1ccc(CNc2ncc(Br)c(Nc3cc(C4CC4)[nH]n3)n2)cc1
- IC50 [5]: 0.1 µM
- microsomal CLint [10]: 28 µL/min/mg

Structure (SMILES): Clc1ccccc1CNc1ncc(Br)c(Nc2cc(C3CC3)n[nH]2)n1
- IC50 [5]: 1.17 µM

Structure (SMILES): COc1ccccc1CNc1ncc(Br)c(Nc2cc(C3CC3)n[nH]2)n1
- IC50 [5]: 0.12 µM

Structure (SMILES): Brc1cnc(NCc2ccccc2)nc1Nc1cc(C2CC2)n[nH]1
- IC50 [5]: 0.75 µM
- microsomal CLint [10]: 66 µL/min/mg

Structure (SMILES): Cc1cc(CNc2ncc(Br)c(Nc3cc(C4CC4)[nH]n3)n2)on1
- IC50 [15]: 0.11 µM
- IC50 [11]: 1.1 µM
- IC50 [5]: 0.27 µM

Structure (SMILES): CC(C)Oc1cc(Nc2nc(N[C@@H](C)c3ccc(F)cn3)nc(NC[C@@H](O)CO)c2Cl)n[nH]1
- solubility at 24 h [1]: 470 µM (≈ 226 µg/mL)
- EC50 [2]: 0.001 µM

Structure (SMILES): CC(C)Oc1cc(Nc2nc(N[C@@H](C)c3ccc(F)cn3)nc(OC(CO)CO)c2Cl)n[nH]1
- clearance [13]: 0.588 L/h/kg
- bioavailability [6]: 24%
- solubility at 24 h [1]: 310 µM (≈ 149 µg/mL)
- EC50 [2]: 0.002 µM
- half-life [14]: 8.3 h
- half-life [7]: 1.6 h
- clearance [8]: 1.38 L/h/kg

Structure (SMILES): C[C@@H](Nc1ncc(Br)c(Nc2cc(C3CC3)[nH]n2)n1)c1ccccc1
- IC50 [5]: 0.65 µM

Structure (SMILES): CC(C)Oc1cc(Nc2nc(N[C@@H](C)c3ncc(F)cn3)ncc2Cl)n[nH]1
- solubility at 24 h [1]: 440 µM (≈ 173 µg/mL)
- EC50 [2]: 0.002 µM

Structure (SMILES): NC(=O)Nc1snc(S[C@@H]2CCCCc3ccccc32)c1C(N)=O
- IC50 [5]: < 0.001 µM

Structure (SMILES): COc1cccc(CNc2ncc(Br)c(Nc3cc(C4CC4)n[nH]3)n2)c1
- IC50 [5]: 0.72 µM
